From patent US20230373985A1 (Origenis Gmbh, priority 2020, published 2023)
Several values for one entry are separate records, joined by “and”; a condition that tells them apart may be missing. Equal entries are not always repeated.

Assays:
[1] = target: T1, wt human TYK2, catalytic site (Homo sapiens, UniProt P29597); test: HTRF KinEASE assay, TYK2; assay type: biochemical; conditions: 1 μM ATP; read-out: IC50, Activity Toward TYK2
T1 construct: wt human TYK2, catalytic site; purchased SignalChem
T1 sequence (P29597 897-1176 limits assumed): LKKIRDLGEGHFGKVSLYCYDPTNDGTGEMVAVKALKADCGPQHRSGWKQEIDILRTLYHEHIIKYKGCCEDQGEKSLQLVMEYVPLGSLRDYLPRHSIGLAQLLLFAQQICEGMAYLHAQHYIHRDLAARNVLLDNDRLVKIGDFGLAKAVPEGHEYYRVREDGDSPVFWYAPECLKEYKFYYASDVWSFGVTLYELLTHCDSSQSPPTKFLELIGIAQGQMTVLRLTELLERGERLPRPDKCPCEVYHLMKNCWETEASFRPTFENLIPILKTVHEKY
In short: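 HTRF KinEASE-TK readout with 1 μM biotinylated TK substrate in 1× kinase buffer, ≥30 min at room temperature, then antibody/streptavidin-XL665 detection for 60 min. TYK2 at 2 nM with 1 μM ATP; JAK2 at 1 nM with 100 μM ATP. Analysis uses emission ratios.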

[2] = target: T2, wt human JAK1, catalytic site (Homo sapiens, UniProt P23458); test: HTRF KinEASE assay, JAK1; assay type: biochemical; conditions: 2.5 μM ATP; read-out: IC50, Activity Toward JAK1
T2 construct: wt human JAK1, catalytic site; purchased ThermoFisher
T2 sequence (P23458 875-1153 limits assumed): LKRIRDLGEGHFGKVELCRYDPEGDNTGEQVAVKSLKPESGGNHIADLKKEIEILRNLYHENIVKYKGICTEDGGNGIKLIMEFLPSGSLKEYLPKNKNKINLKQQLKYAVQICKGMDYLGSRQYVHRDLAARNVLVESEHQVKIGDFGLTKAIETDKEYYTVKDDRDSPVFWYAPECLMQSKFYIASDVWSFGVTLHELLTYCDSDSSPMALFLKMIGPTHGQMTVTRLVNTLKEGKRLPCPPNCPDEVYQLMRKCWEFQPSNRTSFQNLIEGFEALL
In short: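 Two-step HTRF KinEASE assay: compound, kinase/biotinylated TK substrate and ATP were incubated at least 30 min at room temperature. Antibody plus streptavidin-XL665 was then added and plates were read after 60 min. Inhibition was derived from emission ratios according to the kit protocol.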

| Structure (SMILES) | IC50 [1] | IC50 [2] [nM] |
| --- | --- | --- |
| NC(=O)c1nn(-c2c(Cl)cccc2Cl)cc1Nc1ccc(C(=O)N2CC[C@H](N)C2)nc1 [compound 357, (S)-4-((6-(3-aminopyrrolidine-1-carbonyl)pyridin-3-yl)amino)-1-(2,6-dichlorophenyl)-1H-pyrazole-3-carboxamide] | 10 to 100 nM | 100 to 1000 |
| NC(=O)c1nn(-c2c(Cl)cccc2Cl)cc1Nc1ccc(C(=O)N2CCCC2)nc1 [compound 358, 1-(2,6-dichlorophenyl)-4-((6-(pyrrolidine-1-carbonyl)pyridin-3-yl)amino)-1H-pyrazole-3-carboxamide] | 10 to 100 nM | 100 to 1000 |
| Cn1cnnc1-c1ccc(Nc2cn(-c3c(Cl)cccc3Cl)nc2C(N)=O)cn1 [compound 360, 1-(2,6-dichlorophenyl)-4-((6-(4-methyl-4H-1,2,4-triazol-3-yl)pyridin-3-yl)amino)-1H-pyrazole-3-carboxamide] | 10 to 100 nM | 100 to 1000 |
| NC(=O)c1nn(-c2c(Cl)cccc2Cl)cc1Nc1ccc(C(=O)N2CC(F)(F)C(F)(F)C2)nc1 [compound 362, 1-(2,6-dichlorophenyl)-4-((6-(3,3,4,4-tetrafluoropyrrolidine-1-carbonyl)pyridin-3-yl)amino)-1H-pyrazole-3-carboxamide] | 10 to 100 nM | 100 to 1000 |
| CN1CCN(C(=O)c2ccc(Nc3cn(-c4c(Cl)cccc4Cl)nc3C(N)=O)cn2)CC1 [compound 363, 1-(2,6-dichlorophenyl)-4-((6-(4-methylpiperazine-1-carbonyl)pyridin-3-yl)amino)-1H-pyrazole-3-carboxamide] | 10 to 100 nM | 100 to 1000 |
| NC(=O)c1nn(-c2c(Cl)cccc2Cl)cc1Nc1ccc(C(=O)N2CCN(C3CC3)CC2)nc1 [compound 364, 4-((6-(4-cyclopropylpiperazine-1-carbonyl)pyridin-3-yl)amino)-1-(2,6-dichlorophenyl)-1H-pyrazole-3-carboxamide] | 10 to 100 nM | 100 to 1000 |
| NC(=O)c1nn(-c2c(Cl)cccc2Cl)cc1Nc1ccc(C(=O)N2CCOCC2)nc1 [compound 365, 1-(2,6-dichlorophenyl)-4-((6-(morpholine-4-carbonyl)pyridin-3-yl)amino)-1H-pyrazole-3-carboxamide] | 10 to 100 nM | 10 to 100 |
| CN(C)[C@H]1CCN(C(=O)c2ccc(Nc3cn(-c4c(Cl)cccc4Cl)nc3C(N)=O)nc2)C1 [compound 366, (S)-1-(2,6-dichlorophenyl)-4-((5-(3-(dimethylamino)pyrrolidine-1-carbonyl)pyridin-2-yl)amino)-1H-pyrazole-3-carboxamide] | 10 to 100 nM | 100 to 1000 |
| NC(=O)c1nn(-c2c(Cl)cccc2Cl)cc1Nc1ccc(C(=O)N2CC[C@H](F)C2)cn1 [compound 367, (S)-1-(2,6-dichlorophenyl)-4-((5-(3-fluoropyrrolidine-1-carbonyl)pyridin-2-yl)amino)-1H-pyrazole-3-carboxamide] | 10 to 100 nM | 100 to 1000 |
| CN1CCN(C(=O)c2ccc(Nc3cn(-c4c(Cl)cccc4Cl)nc3C(N)=O)nc2)CC1 [compound 370, 1-(2,6-dichlorophenyl)-4-((5-(4-methylpiperazine-1-carbonyl)pyridin-2-yl)amino)-1H-pyrazole-3-carboxamide] | 10 to 100 nM | 100 to 1000 |
| NC(=O)c1nn(-c2c(Cl)cccc2Cl)cc1Nc1ccc(-n2nc(C(F)(F)F)nc2CO)cc1 [compound 371, 1-(2,6-dichlorophenyl)-4-((4-(5-(hydroxymethyl)-3-(trifluoromethyl)-1H-1,2,4-triazol-1-yl)phenyl)amino)-1H-pyrazole-3-carboxamide] | < 10 nM | 100 to 1000 |
| NC(=O)c1nn(-c2c(Cl)cccc2Cl)cc1Nc1ccc(-c2nc(C(F)(F)F)cn2CCO)nc1 [compound 373, 1-(2,6-dichlorophenyl)-4-((6-(1-(2-hydroxyethyl)-4-(trifluoromethyl)-1H-imidazol-2-yl)pyridin-3-yl)amino)-1H-pyrazole-3-carboxamide] | 10 to 100 nM | 100 to 1000 |
| Cc1cnc(C)c(-n2cc(Nc3cn(-c4c(Cl)cccc4Cl)nc3C(N)=O)cn2)n1 [compound 374, 1-(2,6-dichlorophenyl)-4-((1-(3,6-dimethylpyrazin-2-yl)-1H-pyrazol-4-yl)amino)-1H-pyrazole-3-carboxamide] | 100 to 1000 nM | 100 to 1000 |

The next lines start with the values.

| IC50 [1] | IC50 [2] [nM] | Structure (SMILES) |
| --- | --- | --- |
| 10 to 100 nM | 100 to 1000 | Cn1nnnc1-c1ccc(Nc2cn(-c3c(Cl)cccc3Cl)nc2C(N)=O)cn1 [compound 375, 1-(2,6-dichlorophenyl)-4-((6-(1-methyl-1H-tetrazol-5-yl)pyridin-3-yl)amino)-1H-pyrazole-3-carboxamide] |
| 100 to 1000 nM | 10 to 100 | Cn1cc(Nc2cn(-c3c(Cl)cccc3Cl)nc2C(N)=O)cn1 [compound 377, 1-(2,6-dichlorophenyl)-4-((1-methyl-1H-pyrazol-4-yl)amino)-1H-pyrazole-3-carboxamide] |
| 10 to 100 nM | 100 to 1000 | CC(C)n1cc(Nc2cn(-c3c(Cl)cccc3Cl)nc2C(N)=O)cn1 [compound 378, 1-(2,6-dichlorophenyl)-4-((1-isopropyl-1H-pyrazol-4-yl)amino)-1H-pyrazole-3-carboxamide] |
| 100 to 1000 nM | 100 to 1000 | Cn1ncc(Nc2cn(-c3c(Cl)cccc3Cl)nc2C(N)=O)n1 [compound 379, 1-(2,6-dichlorophenyl)-4-((2-methyl-2H-1,2,3-triazol-4-yl)amino)-1H-pyrazole-3-carboxamide] |
| 100 to 1000 nM | 100 to 1000 | Cn1cc(Nc2cn(-c3c(Cl)cccc3Cl)nc2C(N)=O)nn1 [compound 380, 1-(2,6-dichlorophenyl)-4-((1-methyl-1H-1,2,3-triazol-4-yl)amino)-1H-pyrazole-3-carboxamide] |
| 100 to 1000 nM | 100 to 1000 | Cn1ccc(Nc2cn(-c3c(Cl)cccc3Cl)nc2C(N)=O)cc1=O [compound 381, 1-(2,6-dichlorophenyl)-4-((1-methyl-2-oxo-1,2-dihydropyridin-4-yl)amino)-1H-pyrazole-3-carboxamide] |
| 10 to 100 nM and 100 to 1000 nM | 100 to 1000 | NC(=O)c1nn(-c2c(Cl)cccc2Cl)cc1Nc1ccc(C(=O)N2CCN(C3CC3)CC2)cn1 [compound 383, 4-((5-(4-cyclopropylpiperazine-1-carbonyl)pyridin-2-yl)amino)-1-(2,6-dichlorophenyl)-1H-pyrazole-3-carboxamide] |
| 100 to 1000 nM | 100 to 1000 | NC(=O)c1nn(-c2c(Cl)cccc2Cl)cc1Nc1ccc(N2CCCCC2=O)nc1 [compound 384, 1-(2,6-dichlorophenyl)-4-((6-(2-oxopiperidin-1-yl)pyridin-3-yl)amino)-1H-pyrazole-3-carboxamide] |
| 10 to 100 nM | 100 to 1000 | NC(=O)c1nn(-c2c(Cl)cccc2Cl)cc1Nc1ccc(-n2nc(C(F)(F)F)nc2CO)nc1 [compound 385, 1-(2,6-dichlorophenyl)-4-((6-(5-(hydroxymethyl)-3-(trifluoromethyl)-1H-1,2,4-triazol-1-yl)pyridin-3-yl)amino)-1H-pyrazole-3-carboxamide] |
| 100 to 1000 nM | 100 to 1000 | NC(=O)c1nn(-c2c(Cl)cccc2Cl)cc1Nc1ccc(-n2ccccc2=O)nc1 [compound 390, 1-(2,6-dichlorophenyl)-4-((2-oxo-2H-[1,2′-bipyridin]-5′-yl)amino)-1H-pyrazole-3-carboxamide] |
| 100 to 1000 nM | 100 to 1000 | COc1ccc(Cn2cc(Nc3cn(-c4c(Cl)cccc4Cl)nc3C(N)=O)cn2)cc1 [compound 392, 1-(2,6-dichlorophenyl)-4-((1-(4-methoxybenzyl)-1H-pyrazol-4-yl)amino)-1H-pyrazole-3-carboxamide] |
| 100 to 1000 nM | 100 to 1000 | CC(C)c1nnnn1-c1ccc(Nc2cn(-c3c(Cl)cccc3Cl)nc2C(N)=O)cn1 [compound 393, 1-(2,6-dichlorophenyl)-4-((6-(5-isopropyl-1H-tetrazol-1-yl)pyridin-3-yl)amino)-1H-pyrazole-3-carboxamide] |
| 100 to 1000 nM | 100 to 1000 | NC(=O)c1nn(-c2c(Cl)cccc2Cl)cc1Nc1ccn(-c2ccccn2)n1 [compound 397, 1-(2,6-dichlorophenyl)-4-((1-(pyridin-2-yl)-1H-pyrazol-3-yl)amino)-1H-pyrazole-3-carboxamide] |
| 100 to 1000 nM | 100 to 1000 | Cc1cc(C)n(-c2ccc(Nc3cn(-c4c(Cl)cccc4Cl)nc3C(N)=O)cn2)n1 [compound 398, 1-(2,6-dichlorophenyl)-4-((6-(3,5-dimethyl-1H-pyrazol-1-yl)pyridin-3-yl)amino)-1H-pyrazole-3-carboxamide] |
| 100 to 1000 nM | 100 to 1000 | NC(=O)c1nn(-c2c(Cl)cccc2Cl)cc1Nc1cnc(C(=O)N2CCOCC2)cn1 [compound 401, 1-(2,6-dichlorophenyl)-4-((5-(morpholine-4-carbonyl)pyrazin-2-yl)amino)-1H-pyrazole-3-carboxamide] |
| 100 to 1000 nM | 100 to 1000 | CN1CCN(C(=O)c2cnc(Nc3cn(-c4c(Cl)cccc4Cl)nc3C(N)=O)cn2)CC1 [compound 402, 1-(2,6-dichlorophenyl)-4-((5-(4-methylpiperazine-1-carbonyl)pyrazin-2-yl)amino)-1H-pyrazole-3-carboxamide] |
